As usually defined, the stoichiometry N is the number of molecules, sites or subunits per partner or assembly.

Data set [1] concerns the target T1, N461 alaRS (Escherichia coli, UniProt P00957).
T1 construct: gene alaS; N-terminal residues 1-461 (aminoacylation and tRNA recognition domain), N-terminal His tag (pET28a), expressed in E. coli BL21(DE3), monomer, 50710 Da
T1 sequence (P00957 2-462): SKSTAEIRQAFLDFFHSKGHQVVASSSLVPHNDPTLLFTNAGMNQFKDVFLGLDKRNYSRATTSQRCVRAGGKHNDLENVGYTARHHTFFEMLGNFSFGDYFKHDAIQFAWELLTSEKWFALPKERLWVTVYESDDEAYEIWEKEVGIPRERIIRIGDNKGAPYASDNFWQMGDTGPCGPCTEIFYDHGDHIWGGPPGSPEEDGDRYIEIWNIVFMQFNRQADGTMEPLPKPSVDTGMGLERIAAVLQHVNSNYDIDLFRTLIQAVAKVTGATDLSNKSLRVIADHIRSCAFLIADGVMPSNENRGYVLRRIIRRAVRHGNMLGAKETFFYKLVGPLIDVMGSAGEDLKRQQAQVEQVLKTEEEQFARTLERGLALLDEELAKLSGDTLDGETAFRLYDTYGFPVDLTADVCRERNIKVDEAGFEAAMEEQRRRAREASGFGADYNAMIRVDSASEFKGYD
Kind of data set: ANS fluorescence titration. The data set is classed as binding. The note with it: read-out: dissociation constant.

The target in data set [2] is T2, N700 alaRS (Escherichia coli, UniProt P00957).
T2 construct: gene alaS; N-terminal residues 1-700, N-terminal His tag (pET20a), expressed in E. coli BL21(DE3), monomer, 77000 Da
T2 sequence (P00957 2-701): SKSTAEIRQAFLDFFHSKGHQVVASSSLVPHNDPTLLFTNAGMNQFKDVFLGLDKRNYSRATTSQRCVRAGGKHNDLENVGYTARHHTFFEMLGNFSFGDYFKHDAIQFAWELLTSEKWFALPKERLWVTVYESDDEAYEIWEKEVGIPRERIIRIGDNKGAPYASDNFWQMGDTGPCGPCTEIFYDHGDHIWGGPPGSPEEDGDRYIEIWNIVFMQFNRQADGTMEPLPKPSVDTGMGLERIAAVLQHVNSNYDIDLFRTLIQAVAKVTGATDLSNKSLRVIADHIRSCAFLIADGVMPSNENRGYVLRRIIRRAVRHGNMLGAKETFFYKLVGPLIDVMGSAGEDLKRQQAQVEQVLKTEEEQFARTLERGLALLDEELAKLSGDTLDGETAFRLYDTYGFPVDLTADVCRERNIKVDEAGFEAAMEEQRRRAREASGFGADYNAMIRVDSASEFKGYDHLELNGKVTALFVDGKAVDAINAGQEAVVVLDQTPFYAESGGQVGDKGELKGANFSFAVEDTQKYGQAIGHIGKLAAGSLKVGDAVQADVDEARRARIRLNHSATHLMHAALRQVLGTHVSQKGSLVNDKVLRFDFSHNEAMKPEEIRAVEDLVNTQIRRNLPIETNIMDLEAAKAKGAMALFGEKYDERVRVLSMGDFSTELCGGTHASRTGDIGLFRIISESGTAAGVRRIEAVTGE
Kind of data set: ANS fluorescence titration. The data set is classed as binding. The note with it: read-out: dissociation constant.

Data set [3] has as its target T3, alaRS (Escherichia coli, UniProt P00957, G675D).
T3 construct: gene alaS; full length, 875 residues, N-terminal His tag (pET28a), expressed in E. coli BL21(DE3), homodimer, 192500 Da
T3 sequence (P00957 2-876 G675D): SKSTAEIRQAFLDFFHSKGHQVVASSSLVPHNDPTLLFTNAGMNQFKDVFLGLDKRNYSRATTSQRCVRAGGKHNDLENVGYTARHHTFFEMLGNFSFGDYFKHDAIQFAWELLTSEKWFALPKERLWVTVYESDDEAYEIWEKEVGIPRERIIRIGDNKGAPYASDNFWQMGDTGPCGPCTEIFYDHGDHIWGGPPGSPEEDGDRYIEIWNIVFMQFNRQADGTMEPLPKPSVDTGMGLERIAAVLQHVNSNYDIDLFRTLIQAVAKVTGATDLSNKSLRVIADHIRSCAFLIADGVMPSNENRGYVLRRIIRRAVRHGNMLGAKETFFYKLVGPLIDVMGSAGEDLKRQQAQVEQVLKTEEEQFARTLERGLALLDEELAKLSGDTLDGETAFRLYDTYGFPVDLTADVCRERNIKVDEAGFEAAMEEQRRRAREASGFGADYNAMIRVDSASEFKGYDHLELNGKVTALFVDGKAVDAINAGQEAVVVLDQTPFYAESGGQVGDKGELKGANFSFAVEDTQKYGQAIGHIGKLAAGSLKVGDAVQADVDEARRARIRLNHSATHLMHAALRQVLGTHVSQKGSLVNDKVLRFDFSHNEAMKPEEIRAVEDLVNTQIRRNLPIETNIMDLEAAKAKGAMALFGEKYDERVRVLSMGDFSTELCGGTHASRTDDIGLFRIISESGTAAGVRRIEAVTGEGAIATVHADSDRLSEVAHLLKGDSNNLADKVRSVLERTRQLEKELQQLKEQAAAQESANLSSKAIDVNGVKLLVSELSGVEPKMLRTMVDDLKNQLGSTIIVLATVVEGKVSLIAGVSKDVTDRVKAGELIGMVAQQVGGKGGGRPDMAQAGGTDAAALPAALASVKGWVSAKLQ
Description: ANS fluorescence titration. The note with it: read-out: dissociation constant. The data set is classed as binding.

The target in data set [4] is T4, WT-alaRS (Escherichia coli, UniProt P00957).
T4 construct: gene alaS; full length, 875 residues, N-terminal His tag (pET28a), expressed in E. coli BL21(DE3), homodimer, 192500 Da
T4 sequence (P00957 2-876): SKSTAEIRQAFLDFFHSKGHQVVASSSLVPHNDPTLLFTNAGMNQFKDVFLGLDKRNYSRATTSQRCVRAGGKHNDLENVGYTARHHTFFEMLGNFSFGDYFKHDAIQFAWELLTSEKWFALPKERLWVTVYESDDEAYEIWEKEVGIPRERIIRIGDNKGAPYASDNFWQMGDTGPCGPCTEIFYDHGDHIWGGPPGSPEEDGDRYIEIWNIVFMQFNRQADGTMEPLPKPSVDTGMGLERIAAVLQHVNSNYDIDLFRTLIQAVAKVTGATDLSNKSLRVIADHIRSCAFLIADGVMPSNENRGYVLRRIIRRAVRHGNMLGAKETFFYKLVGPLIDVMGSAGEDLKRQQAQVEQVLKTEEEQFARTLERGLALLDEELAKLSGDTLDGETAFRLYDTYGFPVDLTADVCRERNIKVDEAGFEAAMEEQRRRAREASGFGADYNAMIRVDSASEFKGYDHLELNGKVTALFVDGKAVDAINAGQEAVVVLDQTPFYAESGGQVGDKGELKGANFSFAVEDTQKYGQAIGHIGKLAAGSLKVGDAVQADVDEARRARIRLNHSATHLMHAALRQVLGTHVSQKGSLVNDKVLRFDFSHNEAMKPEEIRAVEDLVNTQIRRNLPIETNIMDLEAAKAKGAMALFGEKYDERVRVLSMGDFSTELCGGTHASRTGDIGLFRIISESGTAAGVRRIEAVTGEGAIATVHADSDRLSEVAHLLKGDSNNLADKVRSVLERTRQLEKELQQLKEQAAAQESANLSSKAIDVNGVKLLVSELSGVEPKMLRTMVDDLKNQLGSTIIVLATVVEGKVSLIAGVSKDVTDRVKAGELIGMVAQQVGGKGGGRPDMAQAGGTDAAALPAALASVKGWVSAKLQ
Kind of data set: ANS fluorescence titration. The note with it: read-out: dissociation constant. The format is binding.

Data set [5] concerns the molecule itself. Description: AUC; sedimentation equilibrium, loading concentrations 5 μM, 10 μM and 20 μM (monomer), 20°C, 100 mM Tris-HCl pH 8.0, global single-species fit in SEDPHAT.

For `O=S(=O)(O)c1cccc2cccc(Nc3ccccc3)c12` [ANS], the Kd in data set [1], in data set [2], in data set [3] and in data set [4] was 1000 to 5000 nM throughout.

B1: wild type E. coli alanyl-tRNA synthetase (enzyme, UniProt P00957 1-876, looked up)
chain: MSKSTAEIRQAFLDFFHSKGHQVVASSSLVPHNDPTLLFTNAGMNQFKDVFLGLDKRNYSRATTSQRCVRAGGKHNDLENVGYTARHHTFFEMLGNFSFGDYFKHDAIQFAWELLTSEKWFALPKERLWVTVYESDDEAYEIWEKEVGIPRERIIRIGDNKGAPYASDNFWQMGDTGPCGPCTEIFYDHGDHIWGGPPGSPEEDGDRYIEIWNIVFMQFNRQADGTMEPLPKPSVDTGMGLERIAAVLQHVNSNYDIDLFRTLIQAVAKVTGATDLSNKSLRVIADHIRSCAFLIADGVMPSNENRGYVLRRIIRRAVRHGNMLGAKETFFYKLVGPLIDVMGSAGEDLKRQQAQVEQVLKTEEEQFARTLERGLALLDEELAKLSGDTLDGETAFRLYDTYGFPVDLTADVCRERNIKVDEAGFEAAMEEQRRRAREASGFGADYNAMIRVDSASEFKGYDHLELNGKVTALFVDGKAVDAINAGQEAVVVLDQTPFYAESGGQVGDKGELKGANFSFAVEDTQKYGQAIGHIGKLAAGSLKVGDAVQADVDEARRARIRLNHSATHLMHAALRQVLGTHVSQKGSLVNDKVLRFDFSHNEAMKPEEIRAVEDLVNTQIRRNLPIETNIMDLEAAKAKGAMALFGEKYDERVRVLSMGDFSTELCGGTHASRTGDIGLFRIISESGTAAGVRRIEAVTGEGAIATVHADSDRLSEVAHLLKGDSNNLADKVRSVLERTRQLEKELQQLKEQAAAQESANLSSKAIDVNGVKLLVSELSGVEPKMLRTMVDDLKNQLGSTIIVLATVVEGKVSLIAGVSKDVTDRVKAGELIGMVAQQVGGKGGGRPDMAQAGGTDAAALPAALASVKGWVSAKLQ
notes: alanyl-tRNA synthetase (alaRS), E. coli, full length, printed as 875 residues per subunit; Clone was a gift from Paul Schimmel; homodimer by sedimentation equilibrium and velocity; also called WT-alaRS; WT; source: E. coli BL21 (DE3), pET28a, purified (Ni-NTA agarose)
On to B1, for which, in data set [5], the “stoichiometry N” value is 2.

The record behind these values is paper PMC4649089, “Urea Unfolding Study of E. coli Alanyl-tRNA Synthetase and Its Monomeric Variants Proves the Role of C-Terminal Domain in Stability” (Journal of Amino Acids, 2015).
